Assay [1] concerns PBMCs from HLA-A2+ breast cancer patients. Kind of assay: IFN-γ ELISPOT, PBMCs of breast cancer patients with cyclin B1 peptides. Type of assay: cell-based, human. Here is the method:
(§1) IFN-γ ELISPOT Assays. IFN-g ELISPOT assays were conducted as previously described (Herr et al., J. Immunol. Methods, 191(2), 131-42 (1996)). Briefly, nitrocellulose plates (Millipore, Bedford, Mass.) were coated with the anti-IFN-γ capture mAb 1-D1K (MabTech, Stockholm, Sweden) overnight at 4° C. For assays using dendritic cells as APCs, DCs were loaded with […] of the indicated peptides for 2-6 hrs, and mixed with autologous T cells at a DC:T ratio of 1:10 for 20 hours at 37° C. For assays using autologous PBMCs as APCs, PBMCs were irradiated at 3000 Rads, loaded with […] of peptides for 4 hours, and mixed with autologous T cells at an APC:T ratio of 1:5 for 40 hours at 37° C. The T cells were seeded at 3×10^3-1×10^5 cells/well. All assays were done in serum-free AIM-V medium (Gibco Life Technologies, Grand Island, N.Y.). The plates were then washed in PBS+0.1% Tween and stained with anti-IFN-γ mAb 7-B6-1 (Mabtech) for 2 hours at 37° C. The plates were washed, and the avidin-peroxidase complex (Vectastain ABC Kit, Vector Laboratories) was added to the plates for 1 hour. The plates were then developed using AEC (Sigma) substrate, and spots were quantified microscopically with an inverted phase-contrast microscope (Carl Zeiss, Hallbergmoos, Germany) along with a computer-assisted image analysis system (KS ELISPOT). For HLA Class I blocking experiments, the W6/32 antibody was added to the APCs for 30-45 minutes prior to the incubation with the T cells.
(§2) Stimulating CD8^+ T cells from breast cancer and SCCHN patients with cyclin B1 peptides in vitro. PBMCs from cancer patients were X-irradiated at 3000 Rads, loaded with […] of the indicated peptides for 2-4 hours, and mixed with autologous PBMCs in the presence of 20 U/ml IL-2 (DuPont). The T cell cultures were fed every 3-4 days with 10 U/ml IL-2, and restimulated every 10-12 days, if necessary, using peptide-loaded autologous irradiated PBMCs. All T cell cultures were grown in RPMI medium (ICN, Costa Mesa, Calif.) supplemented with 10% human AB sera (Gemini Products, Calabasas, Calif.), L-glutamine, and penicillin/streptomycin (Life Technologies).

Assay [2] relates to PBMCs from HLA-A*0201 SCCHN patients. In words: IFN-γ ELISPOT, PBMCs of SCCHN patients with cyclin B1 peptides. Type of assay: cell-based, human. The settings on record: for peptide-specific T cells, IFN-γ ELISPOT: SCCHN Patient A, absence of any in vitro stimulation; for HLA Class I-restricted T cell response, IFN-γ ELISPOT: SCCHN Patient B; for T cell response, IFN-γ ELISPOT: SCCHN Patient D; for blocking of the response with anti-Class I antibody: SCCHN Patient C. As for the experimental part:
as §1, §2

The next assay deals with K562. Kind of assay: CTL assay, peptide-sensitized T cells against K562 (LAK control). The note with it: SCCHN Patient A T cells, target K562. Type of assay: cell-based, human. Here is the method:
as §2
(§3) Cytotoxicity assays. 1-2×10^6 target cells were labeled with 50 mCi of Na2^51CrO4 (Amersham, Arlington Heights, Ill.) for 90 minutes at 37° C. The labeled cells were then washed three times and plated at 1×10^3 cells/well in a 96-well V-bottom plate (Costar, Cambridge, Mass.) with various numbers of effector T cells. […] Supernatants were harvested using a Skatron harvesting press (Skatron Instruments, Sterling, Va.) and counted on a Cobra II series auto gamma counting system (Packard, Meriden, Conn.). […] Percent specific lysis was calculated from the following formula: % specific lysis=100×(experimental release−spontaneous release)/(maximum release−spontaneous release).

Another assay deals with MS-A2/CD80 tumor. Kind of assay: CTL assay, peptide-sensitized T cells against MS-A2/CD80. Type of assay: cell-based, human. The settings on record: SCCHN Patient A T cells, target MS-A2/CD80. As for the experimental part:
as §2, §3

The subject of another assay is MS-A2 tumor. Kind of assay: CTL assay, peptide-sensitized T cells against MS-A2. Also noted: killing of the original tumor by peptide-specific T cells: dose or concentration left out as unconfirmed. Type of assay: cell-based, human. As for the experimental part:
(§4) Priming naïve CD8^+ T cells from a healthy donor to cyclin B1 peptides in vitro. Naïve CD8^+ T cells and in vitro generated dendritic cells were purified as described above in Example 1. 2×10^4 dendritic cells were loaded overnight with […]/well peptide in 96-well U-bottom plates (Falcon, Franklin lakes, NJ) and mixed with 2×10^5 autologous naïve CD8^+ T cells the next day in the presence of 2 ng/ml IL-1b (R & D Systems, Minneapolis, Minn.), 20 U/ml IL-2 (DuPont, Wilmington, Del.), and 10 U/ml IL-4 (Schering Plough). Depending on growth kinetics, T cells were fed every 3-4 days with 10 U/ml IL-2 and 5 U/ml IL-4. T cells were restimulated every 7-10 days using peptide-loaded autologous macrophages.
Stimulating CD8^+ T cells from breast cancer and SCCHN patients with cyclin B1 peptides in vitro. PBMCs from cancer patients were X-irradiated at 3000 Rads, loaded with […] of the indicated peptides for 2-4 hours, and mixed with autologous PBMCs in the presence of 20 U/ml IL-2 (DuPont). […]
Cytotoxicity assays. […] Supernatants were harvested using a Skatron harvesting press (Skatron Instruments, Sterling, Va.) and counted on a Cobra II series auto gamma counting system (Packard, Meriden, Conn.). […] Percent specific lysis was calculated from the following formula: % specific lysis=100×(experimental release−spontaneous release)/(maximum release−spontaneous release).

For assay [3], the system named is CD8+ T cells from an HLA-A*0201 healthy donor. In words: IFN-γ ELISPOT, naive CD8+ T cells of a healthy donor primed in vitro to synthetic cyclin B1 peptides. Type of assay: cell-based, human. The settings on record: for antigen-specific IFN-γ secretion by CD8+ T cells: healthy HLA-A2.1+ donor, after several rounds of restimulation (fourth). As for the experimental part: as §1, §4

The next assay concerns the target T1, HLA-A2.1 (Homo sapiens, UniProt P04439, D140Y/D185E/D98H/E176V/E277Q/G131W/G231S/I119V/I121R/I166T/I218V/L300P/L318F/N151K/N90K/P208A/P217A/Q86G/Q94H/R138H/R169H/T345S).
T1 construct: Peptide-induced stabilization of HLA-A2.1 molecules on T2 cells; endogenous in cells; host or cells: T2 cells
In words: HLA Class I stabilization assay on T2 cells. The settings on record: 20 mg/ml peptide, 18-20 hours, MA2.1 staining, >1 indicates binding. Here is the method: HLA Class I stabilization assays. Peptide-induced stabilization of HLA-A2.1 molecules on T2 cells was done as previously described (Zeh et al., Hum. Immunol., 39(2), 79-86 (1994)). 2×10^5 T2 cells were incubated with […] of the indicated synthetic peptides in […] human B2m (Calbiochem, La Jolla, Calif.) for 18-20 hours at room temperature. The cells were then stained with the HLA-A2.1-specific antibody, MA2.1, for 45 minutes, washed with FACS Buffer (PBS, 5% FBS, and 0.01% sodium azide), and stained with a secondary FITC-conjugated anti-IgG antibody (Biosource International, Camarillo, Calif.). The cells were fixed in 4% formaldehyde prior to flow cytometry analysis. The negative control consisted of T2 cells without peptide. […] (SEQ ID NO:11). Flow cytometric analysis was done using a FACScan flow cytometer (Becton-Dickinson).

Where [4] appears, read: breast cancer Patient A, one in vitro stimulation.
Where [5] appears, read: breast cancer Patient C, no in vitro stimulation.
[6] abbreviates: breast cancer Patient D, no in vitro stimulation.

In the case of “AGYLMELCC (cyclin-derived polypeptide) [SEQ ID NO:4, tumor-derived cyclin B1 9-mer peptide]”, the “T cell response, IFN-γ ELISPOT” value is “strong HLA Class I-restricted secondary T cell responses” in assay [1] (setting [4]); “peptide-specific HLA Class I-restricted T cell responses” in assay [1] (setting [5]); “strong HLA Class I-restricted T cell responses” in assay [1] (setting [6]); “did not respond” in assay [1] (breast cancer Patients E and F); “appeared specific” in assay [2]. Also, the “peptide-specific T cells, IFN-γ ELISPOT” value in assay [2] is “peptide-specific T cells also were detected”. The “HLA Class I-restricted T cell response, IFN-γ ELISPOT” value in assay [2] is reported as “HLA Class I-restricted T cell responses”. The “lysis by T cells sensitized to the peptide” value with K562 is “not”. Moreover, the “lysis of tumor by T cells sensitized to the peptide” value in the assay with MS-A2/CD80 tumor is recorded as “able to lyse”; with MS-A2 tumor (SCCHN Patient A T cells, target MS-A2) it was “to a lesser extent”. Also, the “killing of the original tumor by peptide-specific T cells” value in the assay on MS-A2 tumor (healthy donor T cells primed with high peptide concentration) is “unable to kill the original tumor”. For the same sequence, in assay [3], the “antigen-specific IFN-γ secretion by CD8+ T cells” value (from here on “antigen-specific IFN-γ secretion”) was “detected”. The “blocking of the T cell response by anti-Class I antibody W6/32” value in assay [3] (healthy donor) was “blocked”. The “HLA-A2.1 Binding (MFI of T2 cells loaded with peptide / MFI of T2 cells with no peptide)” value with HLA-A2.1 stood at 1.61 X-Fold increase.

For “AGYLMELCF (cyclin-derived polypeptide) [SEQ ID NO:3, tumor-derived cyclin B1 9-mer peptide]”, the “HLA Class I-restricted T cell response, IFN-γ ELISPOT” value in assay [2] is reported as “HLA Class I-restricted T cell responses”. Also, in the assay with HLA-A2.1, the “HLA-A2.1 Binding (MFI of T2 cells loaded with peptide / MFI of T2 cells with no peptide)” value is 1.42 X-Fold increase.

As for “AGYLMELCFA (cyclin-derived polypeptide) [SEQ ID NO:6, tumor-derived cyclin B1 10-mer peptide]”, the “antigen-specific IFN-γ secretion” value in assay [3] is on record as “not”. In the assay with HLA-A2.1, the “HLA-A2.1 Binding (MFI of T2 cells loaded with peptide / MFI of T2 cells with no peptide)” value is on record as 2.08 X-Fold increase.

Turning to “AGYLMELCM (cyclin-derived polypeptide) [SEQ ID NO:2, tumor-derived cyclin B1 9-mer peptide]”, in assay [2], the “HLA Class I-restricted T cell response, IFN-γ ELISPOT” value is given as “not” and the “blocking of the response with anti-Class I antibody” value is on record as “could be blocked”. Besides, the “antigen-specific IFN-γ secretion” value in assay [3] is on record as “not”. For the same sequence, in the assay with HLA-A2.1, the “HLA-A2.1 Binding (MFI of T2 cells loaded with peptide / MFI of T2 cells with no peptide)” value was found to be 1.48 X-Fold increase.

Turning to “AGYLMELCMA (cyclin-derived polypeptide) [SEQ ID NO:5, tumor-derived cyclin B1 10-mer peptide]”, the “T cell response, IFN-γ ELISPOT” value in assay [2] is given as “appeared specific”. Besides, the “antigen-specific IFN-γ secretion” value in assay [3] is “not”. Moreover, the “HLA-A2.1 Binding (MFI of T2 cells loaded with peptide / MFI of T2 cells with no peptide)” value in the assay with HLA-A2.1 came to 1.58 X-Fold increase.

For “AGYLMELCV (cyclin-derived polypeptide) [SEQ ID NO:1, tumor-derived cyclin B1 9-mer peptide]”, the “T cell response, IFN-γ ELISPOT” value in assay [1] (breast cancer Patient B (HLA-A*0206), two in vitro stimulations) is given as “weak secondary response”. Further, in assay [2], the “HLA Class I-restricted T cell response, IFN-γ ELISPOT” value is recorded as “not”. Moreover, in assay [3], the “antigen-specific IFN-γ secretion” value was “not”. The “HLA-A2.1 Binding (MFI of T2 cells loaded with peptide / MFI of T2 cells with no peptide)” value with HLA-A2.1 is listed as 1.60 X-Fold increase.

Take “AKYLMELTM (cyclin-derived polypeptide) [SEQ ID NO:7, human (HeLa) cyclin B1 peptide from the database]”: the “T cell response, IFN-γ ELISPOT” value is reported as “strong HLA Class I-restricted secondary T cell responses” in assay [1] (setting [4]); “peptide-specific HLA Class I-restricted T cell responses” in assay [1] (setting [5]); “lower responses” in assay [1] (setting [6]); “did not respond” in assay [1] (breast cancer Patients E and F); “appeared specific” in assay [2]. Moreover, in assay [1] (breast cancer Patient D), the “blocking of the response by anti-MHC Class I antibody” value was “blocked”. In assay [2], the “peptide-specific T cells, IFN-γ ELISPOT” value is given as “peptide-specific T cells also were detected”. For the same sequence, in assay [2], the “HLA Class I-restricted T cell response, IFN-γ ELISPOT” value is given as “HLA Class I-restricted T cell responses”. Further, the “lysis of tumor by T cells sensitized to the peptide” value in the assay with MS-A2/CD80 tumor is recorded as “able to lyse”. Also, the “HLA-A2.1 Binding (MFI of T2 cells loaded with peptide / MFI of T2 cells with no peptide)” value with HLA-A2.1 is recorded as 2.28 X-Fold increase.

Regarding “AKYLMELTML (cyclin-derived polypeptide) [SEQ ID NO:8, human (HeLa) cyclin B1 peptide from the database]”, the “T cell response, IFN-γ ELISPOT” value in assay [1] (setting [4]) is recorded as “strong HLA Class I-restricted secondary T cell responses”. Further, the “blocking of the response with anti-Class I antibody” value in assay [2] is recorded as “could be blocked”. Besides, the “HLA-A2.1 Binding (MFI of T2 cells loaded with peptide / MFI of T2 cells with no peptide)” value with HLA-A2.1 was found to be 2.25 X-Fold increase.

For “ILKEPGSHV (HIV-POL-derived polypeptide) [reference compound]”, the entries for the “T cell response, IFN-γ ELISPOT” value in assay [1] (setting [4]) and in assay [1] (setting [6]) were “no recognition” and “lower responses”, respectively. Further, the “antigen-specific IFN-γ secretion” value in assay [3] was “not”.

Values taken from patent publication US8211436B2, “Anticancer vaccine and diagnostic methods and reagents” (University of Pittsburgh—Of the Commonwealth System of …, priority 2001, dated 2012).
